Data on 29 compounds can be found in patent US12054483B2, “Small molecule inhibitors of DYRK/CLK and uses thereof” (Arizona Board of Regents on Behalf of the University of …, priority 2018, dated 2024).

For this assay, the target named is DYRK1A (Homo sapiens, UniProt Q13627). Description: Affinity testing of compounds with DYRK1A (KD). The class given is binding. The following applies: DYRK1A affinity key classes.
For `Cc1nc2ccc(-c3ccnc(N)c3)nc2n1-c1ccc2c(c1)OCC(=O)N2` [Compound 46, 7-(5-(2-aminopyridin-4-yl)-2-methyl-3H-imidazo[4,5-b]pyridin-3-yl)-2H-benzo[b][1,4]oxazin-3(4H)-one], the Kd was in the range of 0.5 to 100 nM.

On to `CN1CCN(c2ccc(-c3cnc4ccc(-c5ccncc5)nn34)cn2)CC1` [Compound 87, 3-(6-(4-methylpiperazin-1-yl)pyridin-3-yl)-6-(pyridin-4-yl)imidazo[1,2-b]pyridazine], for which the dissociation constant (Kd) fell in the range of 0.5 to 100 nM.

On to `Cc1nc2ccc(-c3ccncc3)nc2n1-c1ccc2[nH]c(C(F)(F)F)nc2c1` [Compound 34, 2-methyl-5-(pyridin-4-yl)-3-(2-(trifluoromethyl)-1H-benzo[d]imidazol-5-yl)-3H-imidazo[4,5-b]pyridine], for which the equilibrium dissociation constant (Kd) is 0.5 to 100 nM.

The compound `Fc1cc(-c2cnc3ccc(-c4ccncc4)nn23)ccc1CN1CCOCC1` [Compound 78, 4-(2-fluoro-4-(6-(pyridin-4-yl)imidazo[1,2-b]pyridazin-3-yl)benzyl)morpholine] returned a Kd of 101 to 500 nM.

Take `Nc1cc(-c2ccc3nccn3n2)ccn1` [Compound 24, 4-(imidazo[1,2-b]pyridazin-6-yl)pyridin-2-amine]: the Kd fell in the range of 0.5 to 100 nM.

As to `COc1cccc(-c2cnc3ccc(-c4ccncc4)nn23)c1` [Compound 75, 3-(3-methoxyphenyl)-6-(pyridin-4-yl)imidazo[1,2-b]pyridazine], the dissociation constant Kd is 501 to 10000 nM.

In turn, `Cc1nc2ccc(-c3cn[nH]c3)c(F)c2n1-c1ccc2c(c1)OCO2` [Compound 20, 1-(benzo[d][1,3]dioxol-5-yl)-7-fluoro-2-methyl-6-(1H-pyrazol-4-yl)-1H-benzo[d]imidazole] displayed a dissociation constant Kd of 0.5 to 100 nM.

Compound `c1cc(-c2ccc3ncn(-c4ccc5c(c4)OCO5)c3n2)ccn1` [Compound 4, 3-(benzo[d][1,3]dioxol-5-yl)-5-(pyridin-4-yl)-3H-imidazo[4,5-b]pyridine] came in with a dissociation constant (Kd) of 0.5 to 100 nM.

Regarding `Cc1nc2ccc(-c3cnn(C4CC4)c3)nc2n1-c1ccc(N2CCOCC2)c(F)c1` [Compound 147, 4-(4-(5-(1-cyclopropyl-1H-pyrazol-4-yl)-2-methyl-3H-imidazo[4,5-b]pyridin-3-yl)-2-fluorophenyl)morpholine], the Kd was in the range of 0.5 to 100 nM.

Take `Cc1nc2ccc(-c3ccnc(N)c3)nc2n1-c1cccc(CN2CCOCC2)c1` [Compound 153, 4-(2-methyl-3-(3-(morpholinomethyl)phenyl)-3H-imidazo[4,5-b]pyridin-5-yl)pyridin-2-amine]: the Kd was 0.5 to 100 nM.

The compound `Cc1nc2ccc(-c3ccncc3)nc2n1-c1ccc(N2CCOCC2)cc1` [Compound 134, 4-(4-(2-methyl-5-(pyridin-4-yl)-3H-imidazo[4,5-b]pyridin-3-yl)phenyl)morpholine] gave a Kd of 101 to 500 nM.

For the compound `Cc1nc2ccc(-c3ccncc3)nc2n1-c1ccc(CN2CCC3(COC3)C2)cc1` [Compound 121, 6-(4-(2-methyl-5-(pyridin-4-yl)-3H-imidazo[4,5-b]pyridin-3-yl)benzyl)-2-oxa-6-azaspiro[3.4]octane], the Kd was 0.5 to 100 nM.

Consider `Cc1cc(-c2ccc3ncc(-c4ccc(CN5CCN[C@H](C)C5)cc4)n3n2)ccn1` [Compound 94, (R)-3-(4-((3-methylpiperazin-1-yl)methyl)phenyl)-6-(2-methylpyridin-4-yl)imidazo[1,2-b]pyridazine], for which the dissociation constant Kd lay in the range of 0.5 to 100 nM.

`NC(=O)c1ccc(-n2cnc3ccc(-c4ccncc4)c(F)c32)nc1` [Compound 15, 6-(7-fluoro-6-(pyridin-4-yl)-1H-benzo[d]imidazol-1-yl)nicotinamide] gave a dissociation constant (Kd) of 0.5 to 100 nM.

`O=C(O)c1ccnc(-n2cnc3ccc(-c4ccncc4)c(F)c32)c1` [Compound 13, 2-(7-fluoro-6-(pyridin-4-yl)-1H-benzo[d]imidazol-1-yl)isonicotinic acid] showed a Kd of 501 to 10000 nM.

For `Cc1nc2ncc(-c3ccnc(N)c3)nc2n1-c1ccc(N2CCOCC2)cc1` [Compound 128, 4-(2-methyl-1-(4-morpholinophenyl)-1H-imidazo[4,5-b]pyrazin-6-yl)pyridin-2-amine], the dissociation constant Kd was 501 to 10000 nM.

In turn, `Cc1nc2cc(-n3c(C)nc4ccc(-c5cn[nH]c5)nc43)ccc2o1` [Compound 36, 2-methyl-5-(2-methyl-5-(1H-pyrazol-4-yl)-3H-imidazo[4,5-b]pyridin-3-yl)benzo oxazole] displayed a Kd of 101 to 500 nM.

The compound `Cc1nc2ccc(-c3ccncc3)nc2n1-c1ccc(Cl)cn1` [Compound 141, 3-(5-chloropyridin-2-yl)-2-methyl-5-(pyridin-4-yl)-3H-imidazo[4,5-b]pyridine] had a dissociation constant Kd of 0.5 to 100 nM.

With `c1cn2nc(-c3cn[nH]c3)ccc2n1` [Compound 26, 6-(1H-pyrazol-4-yl)imidazo[1,2-b]pyridazine], the Kd is 101 to 500 nM.

Regarding `Cc1nc2ccc(-c3ccnc4[nH]ccc34)nc2n1-c1cccc(CN2CCOCC2)c1` [Compound 178, 4-(3-(2-methyl-5-(1H-pyrrolo[2,3-b]pyridin-4-yl)-3H-imidazo[4,5-b]pyridin-3-yl)benzyl)morpholine], the Kd was 0.5 to 100 nM.

`Cc1nc2ccc(-c3ccnc(N)c3)nc2n1-c1ccc(CN2CCOCC2)nc1` [Compound 149, 4-(2-methyl-3-(6-(morpholinomethyl)pyridin-3-yl)-3H-imidazo[4,5-b]pyridin-5-yl)pyridin-2-amine] registered a Kd of 501 to 10000 nM.

Take `COC(=O)c1ccc(-n2cnc3ccc(-c4ccncc4)nc32)cc1` [Compound 9, methyl 4-(5-(pyridin-4-yl)-3H-imidazo[4,5-b]pyridin-3-yl)benzoate]: the dissociation constant Kd was in the range of 0.5 to 100 nM.

Regarding `CC(=O)N1CC[C@H](n2c(C)nc3ccc(-c4ccncc4)nc32)C1` [Compound 39, (S)-1-(3-(2-methyl-5-(pyridin-4-yl)-3H-imidazo[4,5-b]pyridin-3-yl)pyrrolidin-1-yl)ethan-1-one], the dissociation constant (Kd) fell in the range of 101 to 500 nM.

For `c1cc(-c2ccc3ncc(-c4ccc5[nH]ccc5c4)n3n2)ccn1` [Compound 77, 3-(1H-indol-5-yl)-6-(pyridin-4-yl)imidazo[1,2-b]pyridazine], the Kd fell in the range of 0.5 to 100 nM.

`Cc1nc2ccc(-c3ccncc3)nc2n1-c1ccc(CN2[C@H](C)COC[C@@H]2C)cc1` [Compound 117, (3S,5R)-3,5-dimethyl-4-(4-(2-methyl-5-(pyridin-4-yl)-3H-imidazo[4,5-b]pyridin-3-yl)benzyl)morpholine] displayed a Kd of 101 to 500 nM.

`FC1(F)CCN(Cc2ccc(-c3cnc4ccc(-c5ccncc5)nn34)cc2)C1` [Compound 98, 3-(4-((3,3-difluoropyrrolidin-1-yl)methyl)phenyl)-6-(pyridin-4-yl)imidazo[1,2-b]pyridazine] came in with a Kd of 101 to 500 nM.

On to `Cc1nc2ccc(-c3ccnc(C(F)F)c3)nc2n1-c1ccc2c(c1)OCO2` [Compound 61, 3-(benzo[d][1,3]dioxol-5-yl)-5-(2-(difluoromethyl)pyridin-4-yl)-2-methyl-3H-imidazo[4,5-b]pyridine], for which the Kd was in the range of 501 to 10000 nM.

As to `CC(=O)N1CCN(Cc2ccc(-c3cnc4ccc(-c5ccncc5)nn34)cc2)CC1` [Compound 104, 1-(4-(4-(6-(pyridin-4-yl)imidazo[1,2-b]pyridazin-3-yl)benzyl)piperazin-1-yl)ethan-1-one], the Kd fell in the range of 0.5 to 100 nM.

Compound `Cc1cc(-c2ccc3nc(C)n(-c4ccc5[nH]cnc5c4)c3n2)ccn1` [Compound 50, 3-(1H-benzo[d]imidazol-5-yl)-2-methyl-5-(2-methylpyridin-4-yl)-3H-imidazo[4,5-b]pyridine] displayed a Kd of 0.5 to 100 nM.
